Results reported in patent USRE30561E, “Vinca alkaloid intermediates” (Eli Lilly and Company, priority 1979, dated 1981).

How the values were obtained:
[1] = test system: experimental malignancies; details: in vivo; cited from earlier work
[2] = test system: ROS (Ridgeway osteogenic sarcoma); assay: Transplanted Ridgeway osteogenic sarcoma (ROS) in mice; type: in vivo; details: for oral activity / inhibitory activity orally: orally
Experimental: (§1) The following table--Table 1--gives the results of several experiments in which mice bearing transplanted tumors were treated successfully with a compound of this invention. In the table, column 1 gives the name of the compound; column 2, the transplanted tumor; column 3, the dose level or dose level range and the number of days the dosage was administered; column 4, the route of administration, and column 5, the percent inhibition of tumor growth or percent prolongation of survival time, e.g., B16 and P388. (ROS is an abbreviation for Ridgeway osteogenic sarcoma; GLS for Gardner lymphosarcoma; P1534(J) and P388 are leukemias; CA 755 is an adenocarcinoma; and B16 is a melamoma).

CA755 = assay: Transplanted CA755 adenocarcinoma in mice; type: in vivo; details: for oral activity / inhibitory activity orally: orally
Experimental: as §1

[3] = Toxicity at higher oral dose levels in experimental animals; type: in vivo; details: orally, above 2 (VLB) and 2-4.5 (vincristine) mg./kg.
transplanted tumors [4] = assay: Activity against transplanted tumors in mice in vivo (general); details: for dose level at which comparable tumor inhibition or prolongation of life is shown: parenterally, intraperitoneal route
Experimental: as §1

[5] = test system: GLS (Gardner lymphosarcoma); assay: Transplanted Gardner lymphosarcoma (GLS) tumor in mice; type: in vivo; details: for oral activity / inhibitory activity orally: orally
Experimental: as §1

[6] = humans; cited from earlier work
leukemias = details: human, in vivo; cited from earlier work
P1534(J) = assay: Transplanted P1534(J) leukemia in mice; type: in vivo
Experimental: as §1

B16 = assay: Transplanted B16 melanoma in mice, prolongation of survival time; type: in vivo; details: IP
Experimental: as §1

transplanted tumors [7] = details: animals; cited from earlier work

## CCC1(O)CC2CN(CCc3c([nH]c4ccccc34)C(C(=O)OC)(c3cc4c(cc3OC)N(C)C3C(O)(C(=O)OC)CC5(CC)C=CCN6CCC43C65)C2)C1 (stereo not drawn) [4-desacetoxyvinblastine]
[1]
  activity in the treatment of experimental malignancies in animals: active

## CCC1CC2CN(CCc3c([nH]c4ccccc34)C(C(=O)OC)(c3cc4c(cc3OC)N(C)C3C(O)(C(=O)OC)C(OC(C)=O)C5(CC)C=CCN6CCC43C65)C2)C1 (stereo not drawn) [deoxy VLB "A"]
[1]
  activity in the treatment of experimental malignancies in animals: active

## CCC1(O)CN2CCc3c([nH]c4ccccc34)C(C(=O)OC)(c3cc4c(cc3OC)N(C)C3C(O)(C(=O)OC)C(OC(C)=O)C5(CC)C=CCN6CCC43C65)CC(O)(C2)C1 (stereo not drawn) [leurocolombine]
[1]
  activity in the treatment of experimental malignancies in animals: active

## CCC1(O)CN2CCc3c([nH]c4ccccc34)C(C(=O)OC)(c3cc4c(cc3OC)N(C)C3C(O)(C(=O)OC)CC5(CC)C=CCN6CCC43C65)CC(C2)C1O (stereo not drawn) [4-desacetoxy-3'-hydroxyvinblastine]
[1]
  activity in the treatment of experimental malignancies in animals: active

## CC[C@]1(O)C[C@@H]2CN(CCc3c([nH]c4ccccc34)[C@@](C(=O)OC)(c3cc4c(cc3OC)N(C)[C@H]3[C@@](O)(C(=O)OC)[C@H](OC(C)=O)[C@]5(CC)C=CCN6CC[C@]43[C@@H]65)C2)C1 [VLB, vincaleukoblastine]
[2]; 2 mg./kg.
  oral activity: only marginally active, if at all
CA755; 2 mg./kg.
  oral activity: only marginally active, if at all
[3]
  toxicity at higher levels: usually are toxic at higher levels
Transplanted tumors [4]
  activity by the oral route: do not show this degree of oral activity
  dose level at which comparable tumor inhibition or prolongation of life is shown: 0.4 to 0.45 mg/kg
[5]; 2 mg./kg.
  oral activity: only marginally active, if at all
[1]
  activity in the treatment of experimental malignancies in animals: active

## C=CCN1C(=O)OC2(C1=O)C(OC(C)=O)C1(CC)C=CCN3CCC4(c5cc(C6(C(=O)OC)CC7CN(CCc8c6[nH]c6ccccc86)CC(O)(CC)C7)c(OC)cc5N(C)C24)C31 (stereo not drawn) [VLB 3"-allyl-3-spiro-5"-oxazolidine-2",4"-dione]
[5]; 2.5 mg./kg. × 7 days, IP
  Percent Inhibition of tumor growth: 35%

## CCC1(O)CC2CN(CCc3c([nH]c4ccccc34)C(C(=O)OC)(c3cc4c(cc3OC)N(C)C3C5(OC(=O)N(C)C5=O)C(O)C5(CC)C=CCN6CCC43C65)C2)C1 (stereo not drawn) [4-desacetyl VLB 3"-methyl-3-spiro-5"-oxazolidone-2",4"-dione]
[5]; 2.5 mg./kg. × 7 days, IP
  Percent Inhibition of tumor growth: 27%

## CC[C@]12CN3CCc4c([nH]c5ccccc45)[C@@](C(=O)OC)(c4cc5c(cc4OC)N(C)[C@H]4[C@@](O)(C(=O)OC)[C@H](OC(C)=O)[C@]6(CC)C=CCN7CC[C@]54[C@@H]76)C[C@H](C3)[C@H]1O2 [leurosine]
[1]
  activity in the treatment of experimental malignancies in animals: active

## CC[C@]1(O)C[C@@H]2CN(CCc3c([nH]c4ccccc34)[C@@](C(=O)OC)(c3cc4c(cc3OC)N(C)[C@H]3[C@@](O)(C(N)=O)[C@H](O)[C@]5(CC)C=CCN6CC[C@]43[C@@H]65)C2)C1 [vindesine, 4-desacetyl VLB C-3 carboxamide]
[6]
  neurotoxicity compared with vincristine: less neurotoxicity than does vincristine
leukemias
  activity in leukemias in humans: active in certain leukemias

## CCC12CN3CCc4c([nH]c5ccccc45)C(C(=O)OC)(c4cc5c(cc4OC)N(C=O)C4C(O)(C(=O)OC)C(OC(C)=O)C6(CC)C=CCN7CCC54C76)CC(C3)C1O2 (stereo not drawn) [leuroformine]
[1]
  activity in the treatment of experimental malignancies in animals: active

## CCC1(O)CC2CN(CCc3c([nH]c4ccccc34)C(C(=O)OC)(c3cc4c(cc3OC)N(C)C3C5(OC(=O)N(C)C5=O)C(OC(C)=O)C5(CC)C=CCN6CCC43C65)C2)C1 (stereo not drawn) [VLB 3"-methyl-3-spiro-5"-oxazolidine-2",4"-dione]
[2]; 5-7 mg./kg. × 10 days, PO
  Percent Inhibition of tumor growth: 38-59%
[2]; 6-7 mg./kg.
  inhibitory activity orally: 100%
CA755; 0.5-1.0 mg./kg. × 10 days, IP
  Percent Inhibition of tumor growth: 43-100%
CA755; 6-7 mg./kg.
  inhibitory activity orally: 100%
[5]; 0.6 mg./kg. × 7 days, IP
  Percent Inhibition of tumor growth: 100%
[5]; 1.25 mg./kg. × 9 days, IP
  Percent Inhibition of tumor growth: 100%
[5]; 3-4 mg./kg. × 10 days, PO
  Percent Inhibition of tumor growth: 100%
[5]; 3-5 mg./kg. × 10 days, PO
  Percent Inhibition of tumor growth: 37-56%
[5]; 6-7 mg./kg.
  inhibitory activity orally: 100%
P1534(J); 3-4 mg./kg. × 8 days, PO
  Percent Inhibition or Prolongation of Survival Time: 100%
P1534(J); .5-.6 mg./kg. × 10 days, IP
  Percent Inhibition or Prolongation of Survival Time: 100%
B16; 4.5 mg./kg. × 10 days
  Percent Prolongation of Survival Time: 49-91%
B16; 0.5-0.6 mg./kg. × 10 days
  indefinite survivors (survived for 60 days till end of trial): 3

## CCC1(O)CN2CCc3c([nH]c4ccccc34)C(C(=O)OC)(c3cc4c(cc3OC)N(C)C3C(O)(C(=O)OC)C(OC(C)=O)C5(CC)C=CCN6CCC43C65)CC(C2)C1O (stereo not drawn) [vincadioline]
[1]
  activity in the treatment of experimental malignancies in animals: active

## CCC1(O)CC2CN(CCc3c([nH]c4ccccc34)C(C(=O)OC)(c3cc4c(cc3OC)N(C)C3C5(OC(=O)N(CCCl)C5=O)C(OC(C)=O)C5(CC)C=CCN6CCC43C65)C2)C1 (stereo not drawn) [VLB 3"-(β-chloroethyl)-3-spiro-5"-oxazolidine-2",4"-dione]
[2]; 3-6 mg./kg.
  inhibitory activity orally: 100%
CA755; 0.75-1.0 mg./kg. × 10 days, IP
  Percent Inhibition of tumor growth: 53%
CA755; 3-5 mg./kg. × 9-10 days, PO
  Percent Inhibition of tumor growth: 59-92%
CA755; 3-6 mg./kg.
  inhibitory activity orally: 100%
[5]; 0.65 mg./kg. × 10 days, IP
  Percent Inhibition of tumor growth: 47%
[5]; 0.5-0.6 mg./kg. × 9-10 days, IP
  Percent Inhibition of tumor growth: 50-74%
[5]; 3-4 mg./kg. × 9 days, PO
  Percent Inhibition of tumor growth: 92-100%
[5]; 3-6 mg./kg.
  inhibitory activity orally: 100%
P1534(J); 3.5 mg./kg. × 8 days, PO
  Percent Inhibition or Prolongation of Survival Time: 100%
P1534(J); 0.4-0.6 mg./kg. × 10 days, IP
  Percent Inhibition or Prolongation of Survival Time: 61-86%
B16; 0.4-0.6 mg./kg. × 10 days
  Percent Prolongation of Survival Time: 25-178%
  indefinite survivors (survived for 60 days till end of trial): 5

## CC[C@]1(O)C[C@H]2CN(CCc3c([nH]c4ccccc34)[C@@](C(=O)OC)(c3cc4c(cc3OC)N(C=O)[C@H]3[C@@](O)(C(=O)OC)[C@H](OC(C)=O)[C@]5(CC)C=CCN6CC[C@]43[C@@H]65)C2)C1 [vincristine, leurocristine]
[2]; 2-4.5 mg./kg.
  oral activity: only marginally active, if at all
CA755; 2-4.5 mg./kg.
  oral activity: only marginally active, if at all
[3]
  toxicity at higher levels: usually are toxic at higher levels
Transplanted tumors [4]
  activity by the oral route: do not show this degree of oral activity
  dose level at which comparable tumor inhibition or prolongation of life is shown: 0.2 to 0.25 mg/kg
[5]; 2-4.5 mg./kg.
  oral activity: only marginally active, if at all
[1]
  activity in the treatment of experimental malignancies in animals: active

## CCC1(O)CC2CN(CCc3c([nH]c4ccccc34)C(C(=O)OC)(c3cc4c(cc3OC)N(C=O)C3C5(OC(=O)N(C)C5=O)C(OC(C)=O)C5(CC)C=CCN6CCC43C65)C2)C1 (stereo not drawn) [vincristine 3"-methyl-3-spiro-5"-oxazolidone-2",4"-dione]
[5]; 1.0 mg./kg. × 7 days, IP
  Percent Inhibition of tumor growth: 61%

## CCC1(O)CC2CN(CCc3c([nH]c4ccccc34)C(C(=O)OC)(c3cc4c(cc3OC)N(C)C3C(O)(C(=O)OC)C(OC(C)=O)C5(CC)C=CCN6CCC43C65)C2)C1 (stereo not drawn) [leurosidine]
[1]
  activity in the treatment of experimental malignancies in animals: active

## CCC1(O)CC2CN(CCc3c([nH]c4ccccc34)C(C(=O)OC)(c3cc4c(cc3OC)N(C)C3C5(OC(=O)N(C)C5=O)C(OC(=O)NC)C5(CC)C=CCN6CCC43C65)C2)C1 (stereo not drawn) [4-desacetyl VLB 3"-methyl-3-spiro-5"-oxazolidine-2", 4"-dione-4-(N-methyl)carbamate]
[5]; 0.1-2.5 mg./kg. × 7-9 days, IP
  Percent Inhibition of tumor growth: 40-100%

## CCC1(O)CC2CN(CCc3c([nH]c4ccccc34)C(C(=O)OC)(c3cc4c(cc3OC)N(C)C3C(O)(C(=O)NCCS)C(O)C5(CC)C=CCN6CCC43C65)C2)C1 (stereo not drawn) [C-3 N-(β-mercaptoethyl)carboxamide of 4-desacetyl VLB]
Transplanted tumors [7]
  anti-tumor activity: highly effective anti-tumor agent in mice
